# Measurements published in US8697877B2, “Oxyindole derivatives with motilin receptor agonistic activity” (RaQualia Pharma Inc., priority 2009, dated 2014).
# pEC50: −log10 of the molar value.
# Molecular target: T1, human motilin receptor (GPR38) (Homo sapiens, UniProt O43193)
# T1 construct: expressed in transfected cells; host or cells: CHO-K1
# Test: GPR38 (Motilin Receptor) Functional Assay, NFAT-beta-lactamase reporter in CHO-K1 cells
# Assay type: cell-based
# Details: not given
# Method: The potencies and efficacies of the compounds of this invention for GPR38 can be determined by reporter assay performed on the human cloned receptor as described herein.
# GPR38 (Motilin Receptor) Functional Assay
# A CHO-K1 cell line stably transfected NFAT-beta-lactamase reporter and human motilin receptor gene was used. The cells were cultured in culture medium (Dulbecco's modified eagle medium containing 10% fetal bovine serum, 1 mM sodium pyruvate, 0.1 mM MEM nonessential amino acids, 25 mM HEPES buffer, 50 units/mL penicillin, 50 microg/mL streptomycin, 100 microg/mL zeocin, and 500 microg/mL G418). The cells were harvested with 0.05% trypsin EDTA and centrifuged. The cell pellets were resuspended in the culture medium and plated into a black/clear bottom 384-well plate at a density of 8000 cells per well, then incubated at 37° C. with 5% CO2 for over night (about 20 hours). On the day of assay, the culture medium was aspirated and 20 microL of assay medium (Dulbecco's modified eagle medium containing 100 units/mL penicillin and 100 microg/mL streptomycin) was added to each well, then the cell plates were placed in incubator at 37° C. with 5% CO2 for 1.5 hours. Compounds were prepared in 100% DMSO and these were diluted to 5× of final concentration with assay buffer (Hanks balanced salt solution, 20 mM HEPES, and 0.1% BSA), then dispensed into 384-well plate (5 microL/well). After incubation at 37° C. with 5% CO2 for 4.5 hours, CCF4-AM loading solution (Invitrogen Corp.) was added to each well. After incubation for 2 hours at room temperature, fluorescence intensities were measured by using plate reader FDSS (Hamamatsu Photonics K. K.) with excitation 400 nm, emission 465 nm/540 nm. Agonistic activity (EC50) was calculated from the sigmoidal dose-response curve using GraphPad Prism software (GraphPad Software, Inc.).
# T1 sequence (O43193 whole entry): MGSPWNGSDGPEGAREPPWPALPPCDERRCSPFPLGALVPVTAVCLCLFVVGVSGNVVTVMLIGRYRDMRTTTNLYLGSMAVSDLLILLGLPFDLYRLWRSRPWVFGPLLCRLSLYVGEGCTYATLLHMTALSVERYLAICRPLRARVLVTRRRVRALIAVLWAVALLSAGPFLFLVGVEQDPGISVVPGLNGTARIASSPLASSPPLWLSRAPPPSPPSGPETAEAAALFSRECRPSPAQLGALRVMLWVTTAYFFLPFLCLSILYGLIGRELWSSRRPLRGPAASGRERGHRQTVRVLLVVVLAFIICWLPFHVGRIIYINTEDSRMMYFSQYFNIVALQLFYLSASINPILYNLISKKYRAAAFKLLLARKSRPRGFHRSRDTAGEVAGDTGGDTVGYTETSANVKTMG
row,Compound,pEC50
1,"CN[C@@H]1CC[C@H](C(=O)N[C@@H](COc2ccccc2)C(=O)N2CCC(N3C(=O)C(C)(C)c4ccccc43)CC2)C1 [Example 38, (1S,3R)-N-((S)-1-(4-(3,3-dimethyl-2-oxoindolin-1-yl)piperidin-1-yl)-1-oxo-3-phenoxypropan-2-yl)-3-(methyl-amino)cyclopentanecarboxamide]",≥ 8.00
2,"CC1(C)C(=O)N(C2CCN(C(=O)[C@H](Cc3ccccc3Cl)NC(=O)C3CCNCC3)CC2)c2ccccc21 [Example 79, (S)-N-(3-(2-chlorophenyl)-1-(4-(3,3-dimethyl-2-oxo-indolin-1-yl)piperidin-1-yl)-1-oxopropan-2-yl) piperidine-4-carboxamide]",≥ 8.00
3,"CNC(C)(C)CC(=O)N[C@@H](CCc1ccccc1)C(=O)N1CCC(N2C(=O)C(C)(C)c3cc(F)ccc32)CC1 [Example 46, (S)-N-(1-(4-(5-fluoro-3,3-dimethyl-2-oxoindolin-1-yl)piperidin-1-yl)-1-oxo-4-phenylbutan-2-yl)-3-methyl-3-(methylamino)butanamide]",≥ 8.00
4,"C[C@@H]1CN(C(=O)N[C@@H](CCc2ccccc2)C(=O)N2CCC(N3C(=O)C(C)(C)c4ccccc43)CC2)CCN1 [Example 54, (R)-N-((S)-1-(4-(3,3-dimethyl-2-oxoindolin-1-yl)piperidin-1-yl)-1-oxo-4-phenylbutan-2-yl)-3-methyl-piperazine-1-carboxamide]",≥ 8.00
5,"CCC1(NC(=O)N[C@@H](CCc2ccccc2)C(=O)N2CCC(N3C(=O)C(C)(C)c4ccccc43)CC2)CCNCC1 [Example 55, (S)-1-(1-(4-(3,3-dimethyl-2-oxo-indolin-1-yl)piperidin-1-yl)-1-oxo-4-phenylbutan-2-yl)-3-(4-ethylpiperidin-4-yl)urea]",≥ 8.00
6,"CC1(C)C(=O)N(C2CCN(C(=O)[C@H](CCc3ccccc3)NC(=O)CC3(N)CCC3)CC2)c2ccccc21 [Example 6, (S)-2-(1-aminocyclobutyl)-N-(1-(4-(3,3-dimethyl-2-oxoindolin-1-yl)piperidin-1-yl)-1-oxo-4-phenylbutan-2-yl)acetamide]",≥ 8.00
7,"CC1(C)C(=O)N(C2CCN(C(=O)[C@H](Cc3ccc(Cl)cc3)NC(=O)[C@@H]3CCCNC3)CC2)c2ccccc21 [Example 87, (R)-N-((S)-3-(4-chloro-phenyl)-1-(4-(3,3-dimethyl-2-oxoindolin-1-yl)piperidin-1-yl)-1-oxopropan-2-yl)piperidine-3-carboxamide]",≥ 8.00
8,"CC1(C)C(=O)N(C2CCN(C(=O)[C@H](CCc3ccccc3)NC(=O)NC[C@@H]3CCCNC3)CC2)c2ccccc21 [Example 61, 1-((S)-1-(4-(3,3-dimethyl-2-oxo-indolin-1-yl)piperidin-1-yl)-1-oxo-4-phenylbutan-2-yl)-3-((R)-piperidin-3-ylmethyl)urea]",≥ 8.00
9,"CN[C@@H]1CC[C@H](C(=O)N[C@@H](Cc2ccc(C(F)(F)F)cc2)C(=O)N2CCC(N3C(=O)C(C)(C)c4ccccc43)CC2)C1 [Example 36, (1S,3R)-N-((S)-1-(4-(3,3-dimethyl-2-oxoindolin-1-yl)piperidin-1-yl)-1-oxo-3-(4-(trifluoromethyl)phenyl)propan-2-yl)-3-(methylamino)cyclo-pentanecarboxamide]",≥ 8.00
10,"CC1(C)C(=O)N(C2CCN(C(=O)[C@H](CCc3ccccc3)NC(=O)N[C@H]3CCNC3)CC2)c2ccccc21 [Example 57, 1-((S)-1-(4-(3,3-dimethyl-2-oxo-indolin-1-yl)piperidin-1-yl)-1-oxo-4-phenylbutan-2-yl)-3-((S)-pyrrolidin-3-yl)urea]",≥ 8.00
11,"CN[C@@H]1CC[C@H](C(=O)N[C@@H](Cc2cccc(C(F)(F)F)c2)C(=O)N2CCC(N3C(=O)C(C)(C)c4ccccc43)CC2)C1 [Example 35, (1S,3R)-N-((S)-1-(4-(3,3-dimethyl-2-oxoindolin-1-yl)piperidin-1-yl)-1-oxo-3-(3-(trifluoromethyl)phenyl)propan-2-yl)-3-(methylamino)cyclo-pentanecarboxamide]",≥ 8.00
12,"CN[C@H]1CCN(C(=O)N[C@@H](Cc2ccccc2C(F)(F)F)C(=O)N2CCC(N3C(=O)C(C)(C)c4ccccc43)CC2)C1 [Example 92, (S)-N-((S)-1-(4-(3,3-dimethyl-2-oxoindolin-1-yl)piperidin-1-yl)-1-oxo-3-(2-(trifluoromethyl)phenyl)propan-2-yl)-3-(methylamino)pyrrolidine-1-carboxamide]",≥ 8.00
13,"CC1(C)C(=O)N(C2CCN(C(=O)[C@H](CCc3ccccc3)NC(=O)C3(CN)CC3)CC2)c2ccccc21 [Example 7, (S)-1-(aminomethyl)-N-(1-(4-(3,3-dimethyl-2-oxoindolin-1-yl)piperidin-1-yl)-1-oxo-4-phenylbutan-2-yl)cyclopropanecarboxamide]",≥ 8.00
14,"CN[C@@H]1CC[C@H](C(=O)N[C@H](CC(=O)N2CCC(N3C(=O)C(C)(C)c4ccccc43)CC2)Cc2ccccc2)C1 [Example 43, (1S,3R)-N-((S)-4-(4-(3,3-dimethyl-2-oxoindolin-1-yl)piperidin-1-yl)-4-oxo-1-phenylbutan-2-yl)-3-(methylamino) cyclopentanecarboxamide]",≥ 8.00
15,"CN(C[C@@H]1CCCN1)C(=O)N[C@@H](CCc1ccccc1)C(=O)N1CCC(N2C(=O)C(C)(C)c3ccccc32)CC1 [Example 50, 3-((S)-1-(4-(3,3-dimethyl-2-oxo-indolin-1-yl)piperidin-1-yl)-1-oxo-4-phenylbutan-2-yl)-1-methyl-1-((S)-pyrrolidin-2-ylmethyl)urea]",≥ 8.00
16,CC1(NC(=O)N[C@@H](CCc2ccccc2)C(=O)N2CCC(N3C(=O)C(C)(C)c4cc(F)ccc43)CC2)CCNCC1 [Example 72],≥ 8.00
17,"CC1(C)C(=O)N(C2CCN(C(=O)[C@H](CCc3ccccc3)NC(=O)NC[C@@H]3CCCN3)CC2)c2ccccc21 [Example 48, 1-((S)-1-(4-(3,3-dimethyl-2-oxo-indolin-1-yl)piperidin-1-yl)-1-oxo-4-phenylbutan-2-yl)-3-((S)-pyrrolidin-2-ylmethyl)urea]",≥ 8.00
18,"CN[C@@H]1CC[C@H](C(=O)N[C@@H](Cc2ccccc2C)C(=O)N2CCC(N3C(=O)C(C)(C)c4ccccc43)CC2)C1 [Example 26, (1S,3R)-N-((S)-1-(4-(3,3-dimethyl-2-oxoindolin-1-yl)piperidin-1-yl)-1-oxo-3-o-tolylpropan-2-yl)-3-(methyl-amino)cyclopentanecarboxamide]",≥ 8.00
19,"CC1(C)C(=O)N(C2CCN(C(=O)[C@H](CCc3ccccc3)NC(=O)NC[C@@H]3CCCN3)CC2)c2ccc(F)cc21 [Example 71, 1-((S)-1-(4-(5-fluoro-3,3-dimethyl-2-oxoindolin-1-yl)piperldin-1-yl)-1-oxo-4-phenylbutan-2-yl)-3-((S)-pyrrolidin-2-ylmethyl)urea]",≥ 8.00
20,"CC1(C)C(=O)N(C2CCN(C(=O)[C@H](Cc3ccccc3C(F)(F)F)NC(=O)[C@@H]3CCCNC3)CC2)c2ccccc21 [Example 85, (R)-N-((S)-1-(4-(3,3-dimethyl-2-oxoindolin-1-yl)piperidin-1-yl)-1-oxo-3-(2-(trifluoromethyl)phenyl)propan-2-yl) piperidine-3-carboxamide]",≥ 8.00

# Same assay, conditions: ED50 (nM), Table 15; functional activity toward GPR38 (motilin receptor), (S) versus (R) amino acid linker
row,Compound,EC50
1,CC1(C)C(=O)N(C2CCN(C(=O)[C@@H](CCc3ccccc3)NC(=O)[C@@H]3CCCNC3)CC2)c2ccccc21 [Example 98],6210 nM
